Measured values reported in publication PMC7508583, “Discovery and Preclinical Development of Antigiardiasis Fumagillol Derivatives” (Antimicrobial Agents and Chemotherapy, 2020).
Where two headings read alike, the source gives them in different places.

How the values were obtained:
[1] = system: E. histolytica HM1:IMSS trophozoites; assay: Trophozoite growth inhibition, ATP content (ATPlite) assay; format: cell-based; conditions: Entamoeba histolytica, 72 h, read-out: Mean [IC50 ± SE(IC50)] E. histolytica HM1: IMSS
Description: (§1) Antigiardia assays followed by enzyme inhibition determination facilitated the selection of compounds for permeation and stability studies by in vitro methods, prior to advancing to in vivo studies. Compound potency was evaluated first by measuring G. lamblia trophozoite growth as a function of the compound concentration and calculating the IC50 values. Potency in Entamoeba histolytica trophozoites was also determined because of the early report that fumagillin cured amebiasis ([19]). The intent was to test whether the compounds would be suitable to treat gastrointestinal amebiasis rather than the invasive form of the disease, given that the designed strategy was based on reducing compound permeation across the epithelial cell barrier. […] Trophozoite growth was determined by monitoring the ATP cell content using a high-throughput homogeneous assay developed previously for G. lamblia ([57]). The ATP content serves as a marker of cell integrity since ATP degrades rapidly when cells die and the luminescence signal generated by luciferase requires ATP. The same assay was also adopted in 96-well plates for E. histolytica trophozoite growth measurement, as described in Materials and Methods. A similar E. histolytica trophozoite ATP content assay was described previously ([58]). Fumagillin, TNP-470, and a standard-of-care drug (metronidazole) served as positive controls, and cells without the drug (in the presence of 0.5% dimethyl sulfoxide [DMSO]) served as the negative control.
E. histolytica strain HM1:IMSS trophozoites were grown at 37°C in TYI-S-33 medium supplemented with penicillin (100 U/ml) and streptomycin sulfate (100 μg/ml) ([65]). Trophozoites were grown anaerobically in borosilicate tubes or T25 flasks, and subcultures were made 1 to 2 times a week. Trophozoites were detached for inoculation by chilling the cultures on ice for 20 min.
The growth inhibition assays were performed in duplicate, once for each compound, for all compounds except fumagillin, which served as a positive control and whose inhibitory ability was measured multiple times as new sets of compounds were tested. All dry compounds except for fumagillin were dissolved in dimethyl sulfoxide (DMSO; Sigma) at a stock concentration of 10 mM and then diluted 1:100 in growth medium to a final compound concentration of 100 μM; fumagillin was diluted to 20 μM. Compound solution aliquots (100 μl) were prepared by 3-fold serial dilutions in growth medium containing 0.5% DMSO and distributed into 96-well assay plates. This was followed by the addition of 10 μl G. lamblia or E. histolytica culture containing 10,000 trophozoites. Fumagillin served as a positive control, and the medium-diluted DMSO alone served as a negative control. The assay plates were placed in a BD GasPak EZ container system (BD Diagnostics) to create an anaerobic growth environment. […] Following incubation, 70 μl/well of the ATPlite reagent (PerkinElmer) was added to the assay plates for one-step lysis and ATP level detection. The luminescent signals of the assay plates were measured on an EnSpire 2300 plate reader (PerkinElmer). Concentration-response titration points for each compound were fitted to a 4-parameter logistic nonlinear regression model using the KaleidaGraph tool, yielding the IC50 value and standard error (SE).

[2] = system: G. lamblia WB trophozoites; assay: as above; format: cell-based; conditions: Giardia duodenalis, 72 h, read-out: Mean [IC50 ± SE(IC50)] G. lamblia WB
Description: as §1
(§2) Trophozoites of G. lamblia isolates WB and GS were grown anaerobically in borosilicate glass screw-cap culture tubes (Fisher Scientific) at pH 7.0 in Keister’s modified TYI-S-33 medium (ATCC). The medium was supplemented with 10% heat-inactivated bovine serum (Sigma-Aldrich) and 0.05% bovine bile (Sigma-Aldrich). To attain low-oxygen-tension conditions, the tubes were filled to 85% to 90% of their total volume capacity and incubated without shaking at 37°C. Subcultures (2 × 10^5 trophozoites per tube) were made three times a week. Detachment of trophozoites for inoculation was achieved by chilling the cultures on ice for 20 min. Culturing and detachment of metronidazole-resistant G. lamblia assemblage A 713M3 and assemblage B 1279-M1 trophozoites followed the same protocol, except that the growth medium was supplemented with metronidazole, with the concentration gradually being increased to 10 μM.
(§3) The growth inhibition assays were performed in duplicate, once for each compound, for all compounds except fumagillin, which served as a positive control and whose inhibitory ability was measured multiple times as new sets of compounds were tested. All dry compounds except for fumagillin were dissolved in dimethyl sulfoxide (DMSO; Sigma) at a stock concentration of 10 mM and then diluted 1:100 in growth medium to a final compound concentration of 100 μM; fumagillin was diluted to 20 μM. Compound solution aliquots (100 μl) were prepared by 3-fold serial dilutions in growth medium containing 0.5% DMSO and distributed into 96-well assay plates. This was followed by the addition of 10 μl G. lamblia or E. histolytica culture containing 10,000 trophozoites. Fumagillin served as a positive control, and the medium-diluted DMSO alone served as a negative control. The assay plates were placed in a BD GasPak EZ container system (BD Diagnostics) to create an anaerobic growth environment. The sealed containers were incubated at 37°C for 72 h. Following incubation, 70 μl/well of the ATPlite reagent (PerkinElmer) was added to the assay plates for one-step lysis and ATP level detection. The luminescent signals of the assay plates were measured on an EnSpire 2300 plate reader (PerkinElmer). Concentration-response titration points for each compound were fitted to a 4-parameter logistic nonlinear regression model using the KaleidaGraph tool, yielding the IC50 value and standard error (SE).

[3] = system: G. lamblia GS trophozoites; assay: as above; format: cell-based, Giardia lamblia; conditions: for IC50: Giardia duodenalis, 72 h, read-out: Mean [IC50 ± SE(IC50)] G. lamblia GS
Description: as §1, §2, §3

in vitro = conditions: human; for Papp at 120 min, 10 µM: Caco-2, pH 7.4, Mean ± SE Papp, Caco-2, 10 μM
Source text: Next, we tested the permeation of the compounds across polarized Caco-2 cell monolayers, a method that is widely used as an in vitro model of the human small intestinal mucosa to predict the absorption of orally administered drugs ([63], [64]). With noninvasive intestinal infections, there is no need to establish a high plasma concentration. Since a high rate of uptake through the host gut lining could increase compound toxicity, we sought to reduce gut absorption. […] Both apical-to-basal and basal-to-apical permeation values were measured to obtain information about efflux. […] The efflux machinery is currently unknown.
Passage 36 Caco-2 cells were used. The cells were cultured in Dulbecco’s modified Eagle’s medium (DMEM; 5 ml of 100 mM sodium pyruvate, 5 ml of 100× nonessential amino acids, 5 ml of penicillin-streptomycin, and 100 ml of heat-inactivated fetal bovine serum added to 385 ml of DMEM aseptically and mixed thoroughly), pH 7.4, at 37°C in 5% CO2. DMEM (250 μl) was added to the basal compartment of 96-well multiscreen Caco-2 cell plate consisting of high-pore-density polycarbonate (Millipore) with a 0.4-μm pore size and a 0.11-cm^2 active membrane area. The cells were seeded at a density of 12,000 cells/well (0.16 × 10^6 cells/ml) in the apical wells, with one well containing only medium as blank. The Caco-2 cell plate was placed in a CO2 incubator at 37°C for cell proliferation. On the day of assay, the medium was removed, washed twice with Hanks balanced salt solution (HBSS) buffer supplemented with 2% bovine serum albumin (BSA), pH 7.4, and incubated with the HBSS buffer for 30 min at 37°C. Wells with transepithelial electrical resistance values of greater than 230 Ω · cm^2 were selected for the experiments. […] The assay was performed in duplicate.
Seventy-five microliters of the test compounds was added to the apical wells, and 250 μl of HBSS buffer with 2% BSA was added to the basal wells. The plate was incubated in a CO2 incubator with shaking on a plate shaker at 150 rpm for 120 min, after which 25 μl of the basal samples was collected and processed.
Two hundred fifty microliters of test compounds was added to the basal wells, and 75 μl of HBSS buffer with 2% BSA was added to the apical wells. The plate was incubated in a CO2 incubator with shaking on a plate shaker at 150 rpm for 120 min, after which 25 μl of the apical samples was collected and processed.
For sample processing, a single-point calibration curve in HBSS buffer with 2% BSA was used. Donor samples were diluted 1:1 with HBSS containing 2% BSA, and receiver samples were diluted with 1:1 HBSS buffer and precipitated with 200 μl of acetonitrile containing internal standard. The samples were vortexed for 5 min at 1,000 rpm and centrifuged at 4,000 rpm for 10 min. One hundred microliters of the supernatant was diluted with 200 μl of water and analyzed by LC-MS/MS (with a Shimadzu ultrafast liquid chromatograph and an API 4000 LC-MS/MS system).
The apparent permeation coefficients (Papp) were calculated as Papp = (dQ/dT) × (1/C0) × (1/A), where dQ is the amount permeated to the receiver compartment of the 96-well plate, dT is the time of compound incubation, C0 is the initial compound concentration in the donor compartment of the well, and A is the surface area of the monolayer.

[4] = trophozoite growth, ATP content

| Compound | IC50 [1, 4] | IC50 [2, 4] | IC50 [3, 4] | further results |
| --- | --- | --- | --- | --- |
| COC1C(OC(=O)NC(=O)CN2CCN(CCO)CC2)CCC2(CO2)C1C1(C)OC1CC=C(C)C (centres unmarked) [Compound 6] | 223 ± 29.8 nM | 53.6 ± 10.6 nM | 37 ± 4.4 nM | – |
| CCOC(=O)c1ccc(NC(=O)OC2CCC3(CO3)C(C3(C)OC3CC=C(C)C)C2OC)cc1 (centres unmarked) [Compound 8] | 54 ± 4.3 nM | 12.5 ± 4.2 nM | 27.2 ± 18.1 nM | fold less active than compound 7 ([3]; trophozoite IC50): ~4 fold |
| CO[C@@H]1[C@H](OC(=O)Nc2ccc(C(=O)N3CCC(O)CC3)cc2)CC[C@]2(CO2)[C@H]1[C@@]1(C)O[C@@H]1CC=C(C)C [Compound 10, (3R,4S,5S,6R)-5-methoxy-4-((2R,3R)-2-methyl-3-(3-methylbut-2-en-1-yl)oxiran-2-yl)-1-oxaspiro[2.5]octan-6-yl (4-(4-hydroxypiperidine-1-carbonyl)phenyl)carbamate] | – | – | – | IC50 [1]: 32 ± 2.1 nM; IC50 [2]: 171 ± 21 nM; IC50 [3]: 38.4 ± 3.4 nM |
| CCOC(=O)CNC(=O)OC1CCC2(CO2)C(C2(C)OC2CC=C(C)C)C1OC (centres unmarked) [Compound 13] | – | – | – | IC50 [1]: 23.7 ± 2.6 nM; IC50 [2]: 13.1 ± 2.4 nM; IC50 [3]: 1.5 ± 0.3 nM |
| COC1C(OC(=O)N2CCCCC2)CCC2(CO2)C1C1(C)OC1CC=C(C)C (centres unmarked) [Compound 15] | 7.8 ± 0.6 nM | 4.9 ± 2.2 nM | 2.9 ± 0.8 nM | – |
| COC1C(OC(=O)N2CCN(c3ccccc3)CC2)CCC2(CO2)C1C1(C)OC1CC=C(C)C (centres unmarked) [Compound 17] | > 100000 nM | 251 ± 70 nM | 109 ± 13.7 nM | fold loss of potency compared to compound 16 ([3]; G. lamblia trophozoites): 100 fold |
| CCOC(=O)CO[C@@H]1CC[C@]2(CO2)[C@@H]([C@@]2(C)O[C@@H]2CC=C(C)C)[C@@H]1OC [Compound 18, ethyl 2-(((3R,4S,5S,6R)-5-methoxy-4-((2R,3R)-2-methyl-3-(3-methylbut-2-en-1-yl)oxiran-2-yl)-1-oxaspiro[2.5]octan-6-yl)oxy)acetate] | – | – | – | IC50 [1]: 318 ± 16 nM; IC50 [2]: 42.6 ± 17.5 nM; IC50 [3]: 40.1 ± 4.8 nM |
| CO[C@@H]1[C@H](O)CC[C@]2(CO2)[C@H]1[C@@]1(C)O[C@@H]1CC=C(C)C [Fumagillol] | – | – | – | IC50 [3]: 3400 ± 489 nM |
| CC(C)NCC(O)COc1cccc2ccccc12 (centres unmarked) [Propranolol, reference compound] | – | – | – | efflux ratio at 120 min, 10 µM (in vitro; Caco-2, pH 7.4): 0.36; Papp at 120 min, 10 µM (in vitro; apical to basal): 22.6 ± 1.1 ×10⁻⁶ cm/s; Papp at 120 min, 10 µM (in vitro; basal to apical): 8.14 ± 0.28 ×10⁻⁶ cm/s |
| CO[C@@H]1[C@H](OC(=O)NC(=O)CCl)CC[C@]2(CO2)[C@H]1[C@@]1(C)O[C@@H]1CC=C(C)C [TNP-470, (3R,4S,5S,6R)-5-methoxy-4-((2R,3R)-2-methyl-3-(3-methylbut-2-en-1-yl)oxiran-2-yl)-1-oxaspiro[2.5]octan-6-yl (2-chloroacetyl)carbamate, reference compound] | – | – | – | IC50 [2]: 2.6 ± 0.2 nM; IC50 [3]: 3.4 ± 0.7 nM |

Further lines, with some results ahead:

| IC50 [1, 4] | IC50 [2, 4] | IC50 [3, 4] | Compound | further results |
| --- | --- | --- | --- | --- |
| 4.7 ± 0.5 nM | 2 ± 0.2 nM | 2.4 ± 0.5 nM | COC1C(OC(=O)NC(=O)CN(C)C)CCC2(CO2)C1C1(C)OC1CC=C(C)C (centres unmarked) [Compound 1] | – |
| 435 ± 79 nM | 90.9 ± 34.3 nM | 82.5 ± 26.4 nM | COC1C(OC(=O)NC(=O)CN2CCCCC2)CCC2(CO2)C1C1(C)OC1CC=C(C)C (centres unmarked) [Compound 2] | – |
| 117 ± 8.4 nM | 22.3 ± 1.4 nM | 12.3 ± 2.5 nM | COC1C(OC(=O)NC(=O)CN2CCN(C)CC2)CCC2(CO2)C1C1(C)OC1CC=C(C)C (centres unmarked) [Compound 5] | – |
| 14.6 ± 2.6 nM | 3.7 ± 1 nM | 7 ± 1 nM | COC1C(OC(=O)Nc2ccccc2)CCC2(CO2)C1C1(C)OC1CC=C(C)C (centres unmarked) [Compound 7] | – |
| 94 ± 6.8 nM | 342 ± 50 nM | 63.2 ± 10 nM | COC1C(OC(=O)Nc2ccc(CC(=O)O)cc2)CCC2(CO2)C1C1(C)OC1CC=C(C)C (centres unmarked) [Compound 12] | – |
| 11200 ± 123 nM | > 100000 nM | > 100000 nM | COC1C(OC(=O)NCC(=O)O)CCC2(CO2)C1C1(C)OC1CC=C(C)C (centres unmarked) [Compound 14] | – |
| > 2000 nM | > 2000 nM | > 2000 nM | COC1C(OCC(=O)O)CCC2(CO2)C1C1(C)OC1CC=C(C)C (centres unmarked) [Compound 19] | – |
